Source: PMC12566593, “Effects of Different Centrifugation Parameters on Equilibrium Solubility Measurements” (Methods and Protocols, 2025)
Where a name gives a salt, the structure may show the parent alone. Read-outs that look alike come from different tables or passages of the source.

Columns and labels:
[1] = Ionization state calculated from pKa and buffer pH; format: physicochemical; settings: pH 6.4
Text: Depending on the pH, the molecule exists as the neutral acid (H2A), monoanion (HA^−), or dianion (A^2−). […] These values were derived from the mole fraction (x) of the various species, based on the compound’s known pKa values and the corresponding buffer pH (Equations (3)–(6)).

[2] = Equilibrium solubility, saturation shake-flask, centrifugation as phase separation; settings: for solubility thermodynamic / solubility thermodynamic at 24 h: Britton-Robinson buffer; for solubility thermodynamic: sedimented before centrifugation; for solubility thermodynamic at 24 h: continuously stirred, no sedimentation; for Centrifugation: Result Range: % of reference, all centrifugation protocols
Experimental: To determine equilibrium solubility, the samples were added to Britton-Robinson buffer solutions (BRB) adjusted to specific pH values, obtaining a heterogenous system (Table S2). BR buffers were used in the experiments across a pH range of 2.0 to 11.0, prepared by combining 0.04 M acetic acid, 0.04 M phosphoric acid, and 0.04 M boric acid. The mixture was then titrated with varying amounts of 0.2 M NaOH to achieve the desired pH values. The ionic strength was kept constant (I = 0.15) across all pH values using appropriate amounts of inert KCl. […] The exception was progesterone, a neutral molecule, for which only a single pH condition was necessary. […] This strategy enabled a more comprehensive assessment of how centrifugation parameters influence solubility. Different amounts of 0.2 M NaOH were used to adjust the pH of the buffer to the desired values, between pH 2.0 and 11.0.
(§1) Samples were stirred using the μDISS Profiler™ (Pion Inc., Billerica, MA, USA) at 150 rpm [33], the pH was checked after 1 h and adjusted, if necessary, with either 0.1 M HCl or 0.1 M NaOH. To confirm the reliability of the results, the pH was measured again at the end of each experiment. Prior to centrifugation, two different approaches were applied: stirring samples for 6 h, followed by 18 h of sedimentation, according to the standardized protocol [18], or continuously stirring samples for 24 h, without a subsequent sedimentation step.
From each sample, aliquots of 10 mL were transferred into centrifugation tubes and centrifuged using a Sartorius 2–16P type centrifuge.
(§2) After centrifugation, the concentration was measured by the μDISS Profiler™ (Pion Inc., Billerica, MA, USA) equipped with UV probes. The aliquots were diluted with the buffer solution if necessary. The 2nd derivative method was utilized in the AuPRO™ 7.1 software (Pion Inc., Billerica, MA, USA) to determine the concentration of the samples after a calibration was conducted for each substance. Calibration was performed by adding small volumes of methanolic stock solutions with known concentrations to buffer solutions of defined pH. Separate calibration curves were prepared for each UV probe.
At least three parallel measurements were carried out for each compound with each combination of variables (Table S1). Equilibrium solubility measurements using centrifugation were compared to those obtained by using only sedimentation.

[3] = Equilibrium solubility, saturation shake-flask, sedimentation as phase separation (reference, standard protocol); settings: for solubility: Britton-Robinson buffer
Text: BR buffers were used in the experiments across a pH range of 2.0 to 11.0, prepared by combining 0.04 M acetic acid, 0.04 M phosphoric acid, and 0.04 M boric acid. The mixture was then titrated with varying amounts of 0.2 M NaOH to achieve the desired pH values. The ionic strength was kept constant (I = 0.15) across all pH values using appropriate amounts of inert KCl. […] Different amounts of 0.2 M NaOH were used to adjust the pH of the buffer to the desired values, between pH 2.0 and 11.0.
as §1, §2
At least three parallel measurements were carried out for each compound with each combination of variables (Table S1).

[4] = cited from earlier work; for Filtration: Result Range: % of reference, all filters

For `COc1ccc(Cc2nccc3cc(OC)c(OC)cc23)cc1OC` [PAP-HCL, papaverine hydrochloride], the Fraction ionized [1] was 50%, the “Solubility higher than the reference” value ([2]; 10,000 rpm for 20 min without prior sedimentation) was 60–70% and the solubility thermodynamic ([2]; 25 °C, pH 3, aqueous buffer, thermodynamic from solid, Equilibrium solubility S sed, pH 3.0, 5000 rpm, 5 min) was 37200 µg/mL. It also gave a solubility thermodynamic ([2]; 25 °C, pH 3, aqueous buffer, thermodynamic from solid, Equilibrium solubility S sed, pH 3.0, 5000 rpm, 10 min) of 38000 µg/mL, a solubility thermodynamic ([2]; 25 °C, pH 3, aqueous buffer, thermodynamic from solid, Equilibrium solubility S sed, pH 3.0, 5000 rpm, 20 min) of 37100 µg/mL and a solubility thermodynamic ([2]; 25 °C, pH 3, aqueous buffer, thermodynamic from solid, Equilibrium solubility S sed, pH 3.0, 10,000 rpm, 5 min) of 39500 µg/mL. It also gave a solubility thermodynamic ([2]; 25 °C, pH 3, aqueous buffer, thermodynamic from solid, Equilibrium solubility S sed, pH 3.0, 10,000 rpm, 10 min) of 40900 µg/mL, a solubility thermodynamic ([2]; 25 °C, pH 3, aqueous buffer, thermodynamic from solid, Equilibrium solubility S sed, pH 3.0, 10,000 rpm, 20 min) of 39500 µg/mL and a solubility thermodynamic at 24 h ([2]; 25 °C, pH 3, aqueous buffer, thermodynamic from solid, Equilibrium solubility S stir, pH 3.0, 5000 rpm, 5 min) of 36800 µg/mL. For the same compound, the solubility thermodynamic at 24 h ([2]; 25 °C, pH 3, aqueous buffer, thermodynamic from solid, Equilibrium solubility S stir, pH 3.0, 5000 rpm, 10 min) was 41100 µg/mL, the solubility thermodynamic at 24 h ([2]; 25 °C, pH 3, aqueous buffer, thermodynamic from solid, Equilibrium solubility S stir, pH 3.0, 5000 rpm, 20 min) was 38400 µg/mL and the solubility thermodynamic at 24 h ([2]; 25 °C, pH 3, aqueous buffer, thermodynamic from solid, Equilibrium solubility S stir, pH 3.0, 10,000 rpm, 5 min) was 39100 µg/mL. The solubility thermodynamic at 24 h ([2]; 25 °C, pH 3, aqueous buffer, thermodynamic from solid, Equilibrium solubility S stir, pH 3.0, 10,000 rpm, 10 min) was 40400 µg/mL, the solubility thermodynamic at 24 h ([2]; 25 °C, pH 3, aqueous buffer, thermodynamic from solid, Equilibrium solubility S stir, pH 3.0, 10,000 rpm, 20 min) was 39300 µg/mL and the solubility thermodynamic ([2]; 25 °C, pH 6.4, aqueous buffer, thermodynamic from solid, Equilibrium solubility S sed, pH 6.4, 5000 rpm, 5 min) was 24.4 ± 0.48 µg/mL. The solubility thermodynamic ([2]; 25 °C, pH 6.4, aqueous buffer, thermodynamic from solid, Equilibrium solubility S sed, pH 6.4, 5000 rpm, 10 min) was 28.2 ± 0.78 µg/mL, the solubility thermodynamic ([2]; 25 °C, pH 6.4, aqueous buffer, thermodynamic from solid, Equilibrium solubility S sed, pH 6.4, 5000 rpm, 20 min) was 28.2 ± 0.73 µg/mL and the solubility thermodynamic ([2]; 25 °C, pH 6.4, aqueous buffer, thermodynamic from solid, Equilibrium solubility S sed, pH 6.4, 10,000 rpm, 5 min) was 24.4 ± 1.17 µg/mL. The solubility thermodynamic ([2]; 25 °C, pH 6.4, aqueous buffer, thermodynamic from solid, Equilibrium solubility S sed, pH 6.4, 10,000 rpm, 10 min) was 32.8 ± 0.81 µg/mL, the solubility thermodynamic ([2]; 25 °C, pH 6.4, aqueous buffer, thermodynamic from solid, Equilibrium solubility S sed, pH 6.4, 10,000 rpm, 20 min) was 31.2 ± 1.08 µg/mL and the solubility thermodynamic at 24 h ([2]; 25 °C, pH 6.4, aqueous buffer, thermodynamic from solid, Equilibrium solubility S stir, pH 6.4, 5000 rpm, 5 min) was 33 ± 2.11 µg/mL. The solubility thermodynamic at 24 h ([2]; 25 °C, pH 6.4, aqueous buffer, thermodynamic from solid, Equilibrium solubility S stir, pH 6.4, 5000 rpm, 10 min) was 32.3 ± 1.54 µg/mL, the solubility thermodynamic at 24 h ([2]; 25 °C, pH 6.4, aqueous buffer, thermodynamic from solid, Equilibrium solubility S stir, pH 6.4, 5000 rpm, 20 min) was 32.9 ± 1.26 µg/mL and the solubility thermodynamic at 24 h ([2]; 25 °C, pH 6.4, aqueous buffer, thermodynamic from solid, Equilibrium solubility S stir, pH 6.4, 10,000 rpm, 5 min) was 28.6 ± 1.55 µg/mL. For the same compound, the solubility thermodynamic at 24 h ([2]; 25 °C, pH 6.4, aqueous buffer, thermodynamic from solid, Equilibrium solubility S stir, pH 6.4, 10,000 rpm, 10 min) was 37.8 ± 2.07 µg/mL, the solubility thermodynamic at 24 h ([2]; 25 °C, pH 6.4, aqueous buffer, thermodynamic from solid, Equilibrium solubility S stir, pH 6.4, 10,000 rpm, 20 min) was 39.1 ± 1.34 µg/mL and the solubility thermodynamic ([2]; 25 °C, pH 10, aqueous buffer, thermodynamic from solid, Equilibrium solubility S sed, pH 10.0, 5000 rpm, 10 min) was 14.3 ± 0.17 µg/mL. The solubility thermodynamic ([2]; 25 °C, pH 10, aqueous buffer, thermodynamic from solid, Equilibrium solubility S sed, pH 10.0, 10,000 rpm, 5 min) was 16.3 ± 0.57 µg/mL, the solubility thermodynamic ([2]; 25 °C, pH 10, aqueous buffer, thermodynamic from solid, Equilibrium solubility S sed, pH 10.0, 10,000 rpm, 10 min) was 17.5 ± 0.18 µg/mL and the solubility thermodynamic ([2]; 25 °C, pH 10, aqueous buffer, thermodynamic from solid, Equilibrium solubility S sed, pH 10.0, 10,000 rpm, 20 min) was 18.7 ± 2.41 µg/mL. For the same compound, the solubility thermodynamic at 24 h ([2]; 25 °C, pH 10, aqueous buffer, thermodynamic from solid, Equilibrium solubility S stir, pH 10.0, 5000 rpm, 5 min) was 18.4 ± 0.28 µg/mL, the solubility thermodynamic at 24 h ([2]; 25 °C, pH 10, aqueous buffer, thermodynamic from solid, Equilibrium solubility S stir, pH 10.0, 10,000 rpm, 10 min) was 18.2 ± 1.12 µg/mL and the solubility thermodynamic at 24 h ([2]; 25 °C, pH 10, aqueous buffer, thermodynamic from solid, Equilibrium solubility S stir, pH 10.0, 10,000 rpm, 20 min) was 28.7 ± 0.7 µg/mL. For the same compound, the solubility thermodynamic ([2]; pH 10, Equilibrium solubility S sed, pH 10.0, 5000 rpm, 5 min) was 17 ± 0.86 µg/mL, the solubility thermodynamic ([2]; pH 10, Equilibrium solubility S sed, pH 10.0, 5000 rpm, 20 min) was 14.4 ± 0.38 µg/mL and the solubility thermodynamic at 24 h ([2]; pH 10, Equilibrium solubility S stir, pH 10.0, 5000 rpm, 10 min) was 13.3 ± 0.2 µg/mL. For the same compound, the solubility thermodynamic at 24 h ([2]; pH 10, Equilibrium solubility S stir, pH 10.0, 5000 rpm, 20 min) was 16.9 ± 0.79 µg/mL, the solubility thermodynamic at 24 h ([2]; pH 10, Equilibrium solubility S stir, pH 10.0, 10,000 rpm, 5 min) was 17.8 ± 0.5 µg/mL and the “Centrifugation: Closest to Reference (100%)” value (“Centrifugation … (100%)” below) ([2]; pH 3.0) was 100%. For the same compound, the “Centrifugation: Result Range” value ([2]; pH 3.0) was 91–102%, the “Centrifugation … (100%)” value ([2]; pH 6.4) was 101% and the “Centrifugation: Result Range” value ([2]; pH 6.4) was 101–162%. For the same compound, the “Centrifugation … (100%)” value ([2]; pH 10.0) was 100%, the “Centrifugation: Result Range” value ([2]; pH 10.0) was 78–170% and the “Solubility compared to the other samples” value ([2]; pH 10.0, higher centrifugation speed, 20 min of centrifugation) was “nearly doubled”. The solubility ([3]; 25 °C, pH 3, aqueous buffer, thermodynamic from solid, Solubility (reference), pH 3.0, 6 h stirring, 18 h sedimentation) was 40400 µg/mL, the solubility ([3]; 25 °C, pH 6.4, aqueous buffer, thermodynamic from solid, Solubility (reference), pH 6.4, 6 h stirring, 18 h sedimentation) was 24.2 ± 1.1 µg/mL and the solubility ([3]; pH 10, Solubility (reference), pH 10.0, 6 h stirring, 18 h sedimentation, 25 °C) was ~17 µg/mL. For the same compound, the “Solubility at pH 3.0 relative to pH 10.0” value ([3]; fully ionized vs neutral form) was “around 2350 times”, the “Solubility (reference)” value ([3]; pH 10.0, 6 h stirring, 18 h sedimentation, 25 °C) was 16.9 ± 1.7 µg/mL and the “Filtration: Result Range” value ([4]; pH 3.0) was 85–95%. For the same compound, the “Filtration: Closest to Reference (100%)” value ([4]; pH 3.0) was 95%, the “Filtration: Result Range” value ([4]; pH 6.4) was 42–106% and the “Filtration: Closest to Reference (100%)” value ([4]; pH 6.4) was 95%. The “Filtration: Result Range” value ([4]; pH 10.0) was 62–95% and the “Filtration: Closest to Reference (100%)” value ([4]; pH 10.0) was 95%.
